# Test results taken from PubChem BioAssay (NCI).
#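 48-hour exposure; five concentrations; linearly interpolated endpoints. GI50 = concentration required for 50% inhibition of growth. TGI marks complete inhibition of growth.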
# Assays:
# Assay in all cases: NCI anticancer screen, dose series, 48 h
# [1] = test system: MOLT-4 leukemia
# [2] = test system: OVCAR-8 ovarian
# [3] = test system: RXF 393 renal
# [4] = test system: HS 578T breast
# [5] = test system: HOP-92 NSCLC
# [6] = test system: HCT-15 colon
# [7] = test system: OVCAR-3 ovarian
# [8] = test system: TK-10 renal
# [9] = test system: NCI-H226 lung
# [10] = test system: U251 CNS
SMILES,GI50 [1] [µM],TGI [1] [µM],GI50 [2] [µM],TGI [2] [µM],GI50 [3] [µM],TGI [3] [µM],GI50 [4] [µM],TGI [4] [µM],GI50 [5] [µM],TGI [5] [µM],GI50 [6] [µM],TGI [6] [µM],GI50 [7] [µM],TGI [7] [µM],GI50 [8] [µM],TGI [8] [µM],GI50 [9] [µM],TGI [9] [µM],GI50 [10] [µM],TGI [10] [µM]
CC(C)C[C@H](NC(=O)/C=C/Cn1ccc2ccccc2c1=O)B(O)O,2.73,12.5,14.2,55.5,2.13,5.15,5.03,> 100,6.49,30.4,6.55,48.2,2.55,7.88,3.27,10.4,1.76,3.63,–,–
Cc1ccc2[nH]c(O)c(N=Nc3ccc(S(N)(=O)=O)cc3)c2c1,> 21.5,> 25,> 16.9,> 25,5.27,17.5,8.24,> 25,> 25,> 25,11.1,> 25,6.73,> 18.4,10.1,> 25,7.92,> 25,12.8,> 25
CN(C)C(=O)[C@H](O)[C@H](Cc1ccccc1)NC(=O)c1cc2cc(Cl)ccc2[nH]1,21,79.4,28.8,> 100,20,62.9,27.5,> 100,17,56.8,22.4,81.5,18.5,43.5,24.3,67,23,> 88.2,17.9,42.5
C[C@H](O)C(=O)N1CCC(CCn2c(Sc3cc4c(cc3Br)OCO4)nc3c(N)ncnc32)CC1,0.55,11.8,0.827,> 100,2.57,> 31.6,–,> 100,2.19,> 100,1.3,> 100,3.28,> 100,1.3,> 100,4.01,> 100,2.14,> 100
COc1ccc(/C=C/C(=O)C(CC2CCC2)C(=O)/C=C/c2ccc(OC)c(OC)c2)cc1OC,2.82,8.95,–,–,1.85,3.47,3.19,> 100,2.64,7.9,1.28,3.9,1.04,3.04,2.59,4.88,2.68,6.74,1.38,2.79
CC1=C(C(=O)Nc2ccc(F)c(Cl)c2)C(c2cccc(O)c2)NC(=O)N1 (configuration not stated),–,–,62.7,> 100,> 100,> 100,26.9,> 100,47.5,> 100,> 100,> 100,71.8,> 100,> 100,> 100,85.9,> 100,> 100,> 100
CN(C)CCN1C(=O)c2ccc3c4c(ccc(c24)C1=O)C(=O)N(CCN=C=S)C3=O,–,–,0.0288,0.173,0.0416,0.177,0.127,0.68,0.0262,0.174,0.0579,0.221,0.0267,0.0897,0.0218,0.109,0.1,0.325,0.0347,0.153
COc1c(CCl)cc(-c2cc(=O)c3ccccc3s2)cc1CCl,–,–,–,> 100,–,3.2,–,59.6,–,1.8,–,> 100,–,> 100,–,99.7,–,> 31.6,–,> 59.8
COc1cc(/C=C/c2cc(/C=C/c3ccc(O)c(OC)c3)n(C(=O)Nc3ccc(C)cc3C)n2)ccc1O,0.281,1.22,0.562,2.36,0.262,0.775,0.295,> 100,0.576,3.71,–,–,0.327,1.03,0.529,2.16,0.389,2.1,0.401,1.47
CCCCCCCCCCCCCCCCCCOc1ccccc1CC(=O)OCC[N+]1(C)CCCC1,2.12,4.95,–,–,1.35,2.76,2.41,7.01,1.22,3.37,4.1,21,1.63,3.13,1.52,3.08,2.2,6.09,–,–
Nc1ccc(-c2nc3ccc(Cc4ccc5nc(-c6ccc(N)cc6)[nH]c5c4)cc3[nH]2)cc1,–,–,2.48,6.58,15.7,42.9,13,39.5,16.5,39,14.8,47.9,1.76,3.31,24.4,43.3,8.06,36.9,–,–
Cc1ccc(-c2nc3ccc(Cl)cc3c(=O)n2N2C(=O)CSC2c2ccccc2Cl)cc1 (configuration not stated),> 100,> 100,4.58,> 100,6.46,> 100,2.62,17.2,6.74,> 100,> 100,> 100,5.44,> 100,–,–,5.14,> 100,5.05,> 100
O=C(CCC1OCCO1)Nc1cc(NCc2ccccc2)ccc1OCc1ccccc1,–,81.5,–,58.6,–,77.8,–,> 100,–,73.3,–,> 100,–,–,–,83.4,–,> 100,–,> 100
